Assay results: patent US10450317B2, “Notch pathway signaling inhibitor compounds” (Eli Lilly and Company, priority 2015, dated 2019)

Columns and labels:
[1] = test system: mouse Notch1; test: Notch1 N1ICD nuclear accumulation cellular imaging assay; format: cell-based; details: HEK293ΔE12 cells, 24 hours treatment, n=2; read-out: average IC50 for the nuclear N1ICD signal
Description: HEK293ΔE12 cells (HEK293 cells are engineered to stably express mouse Notch1 cDNA coding for amino acid 1703-2183, Np_932740.3, (Full length mouse Notch 1 protein precursor: SEQ ID NO:1) with 23 amino acid signal peptide sequence, […] (SEQ ID NO:2), at its N-terminus) are plated at 5000 cells/well in 96 well plates, incubated in Dulbecco's Modified. Eagle's Medium (DMEM)-high glucose with 5% fetal bovine serum (FBS) at 37° C., 5% CO2 for 24 hours. Cells are treated with test compound, dosing at 10 points of 1:3 dilutions across the range of 1000 nM to 0.05 nM, and with final dimethyl sulfoxide (DMSO) concentration at 0.2%. […] Plates are scanned with ACUMEN EXPLORER™ Laser-scanning fluorescence microplate cytometer (TTP LABTECH LTD) to measure total cell nuclear count/well and total nuclear area/well with fluorescence at 655 nm-705 nm (emission of DNA bound propidium iodide) and fluorescence of antibody binding to N1ICD in nuclear region at 505 nm-530 nm. The main assay output is a ratio of total fluorescence of nuclear N1ICD to total nuclear area, the normalized nuclear N1ICD signal. […] Concentration response and the IC50 are determined by curve fitting to a four parameter logistic for the nuclear N1ICD signal, while the % cell number is plotted in the same graph for cytotoxicity profiling.

[2] = test system: hAtoh1; test: Induction of hAtoh1 expression in human tumor cell line LS174T (qPCR); format: cell-based; details: LS174T cells, 72 hours, read-out: IC50 (relative expression of hAtoh1)
Description: To evaluate potency of Compounds 1, Isomer 2 and 2, Isomer 2 in their ability to induce hAtoh1 expression, a human tumor cell line is utilized. Endogenous Notch signaling regulation for this cell line is similar to that in the inner ear. Generally, this assay is carried out following principles in Kazanjian et al., Gastroenterology, 2010, 139(3): 918-928 and Supplementary Materials and Methods.
Generally, standard cell culture techniques are used. Low passage human colorectal adenocarcinoma cell line LS174T (ATCC CL-188) maintained in Growth Medium (MEM 10% FBS) is plated 10,000 cells in 100 μl Assay Medium (MEM 1% FBS) per well into 96-well tissue culture treated plates. […]
To quantify the expression of hair cell markers from the […], qPCR probes to detect hAtoh1 or TBP expression in a single two-color multiplex reaction is carried out. […] Relative gene expression between treatment groups is analyzed using the ΔΔCT method and replicate measurements are averaged.
Four separate assays are carried out to obtain IC50 values for each test compound. The IC50 value is determined by fitting concentration response data to “log(antagonist) vs. response (three parameter)” model using GraphPad Prism® software for 12 doses across a concentration range of 4.0E-11 to 1.0E-6 M with 108 total points analyzed for each compound.

Row | SMILES | IC50 [1] [nM] | IC50 [2] [nM]
1 | COc1ccc2c(c1)N1CCC(C)(C)C1=CC(=O)C2NC(=O)[C@H](C)NC(=O)CCC(F)(F)F (single isomer, unassigned) [Compound 1, Isomer 2] | 0.37 | 16.6
2 | C[C@H](NC(=O)CCC(F)(F)F)C(=O)NC1C(=O)C=C2N(CCC2(C)C)c2ncccc21 (single isomer, unassigned) [Compound 2, Isomer 2] | 1.55 | 54.3
